# Assay results from patent publication US8383139B2 (Bayer CropScience AG, priority 2008, dated 2013).
# Legend:
# Alternaria solani = test: Alternaria test (tomato)/protective; format: in vivo; conditions: 72 h, 100 ppm active substance, protective, evaluation 3 days after inoculation, read-out: degree of effectiveness
# Experimental: (§1) • Solvents: 24.5 parts by weight of acetone • 24.5 parts by weight of dimethylacetamide • Emulsifier: 1 part by weight of alkylaryl polyglycol ether (polyoxyethylene (16) tristearylphenyl ether)
# (§2) To prepare a suitable active substance composition, 1 part by weight of active substance is mixed with the given amounts of solvents and emulsifier and the concentrate is diluted to the desired concentration using water.
# For the testing of protective effectiveness, young plants are sprayed with the active substance composition in the application rate given. After the spray coating has been dried on, the plants are inoculated with an aqueous suspension of spores of Alternaria solani. The plants are then placed in an incubation chamber at approximately 20° C. and 100% relative humidity.
# Evaluation is carried out 3 days after the inoculation. In this connection, 0% means a degree of effectiveness corresponding to that of the control, while a degree of effectiveness of 100% means that no infestation is observed.
# Septoria tritici = Septoria tritici test (wheat)/protective; format: in vivo; conditions: Zymoseptoria tritici, 504 h, 500 ppm active substance, protective, evaluation 21 days after inoculation, read-out: degree of effectiveness
# Experimental: • Solvent: 50 parts by weight of N,N-dimethylacetamide • Emulsifier: 1 part by weight of alkylaryl polyglycol ether (polyoxyethylene (16) tristearylphenyl ether) To prepare a suitable active substance composition, 1 part by weight of active substance is mixed with the given amounts of solvent and emulsifier and the concentrate is diluted to the desired concentration using water. For the testing of protective effectiveness, young plants are sprayed with the active substance composition at the application rate given. After the spray coating has dried on, the plants are sprayed with a suspension of spores of Septoria tritici. The plants remain in an incubation chamber at 20° C. and 100% relative humidity for 48 hours. The plants are afterwards placed under a transparent hood at 15° C. and 100% relative humidity for a further 60 hours. The plants are placed in a greenhouse at a temperature of approximately 15° C. and a relative humidity of 80%. Evaluation is carried out 21 days after the inoculation. In this connection, 0% means a degree of effectiveness corresponding to that of the control, while a degree of effectiveness of 100% means that no infestation is observed.
# [1] = log P by HPLC on reversed-phase columns (C 18), EEC Directive 79/831 Annex V.A8; format: physicochemical; conditions: reversed-phase C18 HPLC column, pH 2.3, [a] HPLC, acid region pH 2.3, 0.1% aqueous phosphoric acid and acetonitrile; read-out: log p
# Uromyces appendiculatus = test: Uromyces test (beans)/protective; format: in vivo; conditions: 240 h, 100 ppm active substance, protective, evaluation 10 days after inoculation, read-out: degree of effectiveness
# Experimental: as §1, §2
# For the testing of protective effectiveness, young plants are sprayed with the active substance composition in the application rate given. After the spray coating has been dried on, the plants are inoculated with an aqueous suspension of the spores of the bean rust pathogen Uromyces appendiculatus and then remain in an incubation chamber at approximately 20° C. and 100% relative humidity for 1 day.
# The plants are then placed in a greenhouse at approximately 21° C. and a relative humidity of approximately 90%.
# Evaluation is carried out 10 days after the inoculation. In this connection, 0% means a degree of effectiveness corresponding to that of the control, while a degree of effectiveness of 100% means that no infestation is observed.
# Puccinia triticina = Puccinia triticina test (wheat)/protective; format: in vivo; conditions: 192 h, 500 ppm active substance, protective, evaluation 8 days after inoculation, read-out: degree of effectiveness
# Experimental: • Solvent: 50 parts by weight of N,N-dimethylacetamide • Emulsifier: 1 part by weight of alkylaryl polyglycol ether (polyoxyethylene (16) tristearylphenyl ether) To prepare a suitable active substance composition, 1 part by weight of active substance is mixed with the given amounts of solvent and emulsifier and the concentrate is diluted to the desired concentration using water. For the testing of protective effectiveness, young plants are sprayed with the active substance composition in the application rate given. After the spray coating has been dried on, the plants are sprayed with spores with a suspension of spores of Puccinia triticina. The plants remain in an incubation chamber at 20° C. and 100% relative humidity for 48 hours. The plants are placed in a greenhouse at a temperature of approximately 20° C. and a relative humidity of approximately 80%. Evaluation is carried out 8 days after the inoculation. In this connection, 0% means a degree of effectiveness corresponding to that of the control, while a degree of effectiveness of 100% means that no infestation is observed.
# Sphaerotheca fuliginea = test: Sphaerotheca test (cucumber)/protective; format: in vivo; conditions: Podosphaera fuliginea, 168 h, 500 ppm active substance, protective, evaluation 7 days after inoculation, read-out: degree of effectiveness
# Experimental: • Solvents: 49 parts by weight of N,N-dimethylformamide • Emulsifier: 1 part by weight of alkylaryl polyglycol ether (polyoxyethylene (16) tristearylphenyl ether) To prepare a suitable active substance composition, 1 part by weight of active substance is mixed with the given amounts of solvents and emulsifier and the concentrate is diluted to the desired concentration using water. For the testing of protective effectiveness, young cucumber plants are sprayed with the active substance composition in the application rate given. One day after the treatment, the plants are inoculated with a suspension of spores of Sphaerotheca fuliginea. Subsequently, the plants are placed in a greenhouse at 70% relative humidity and at a temperature of 23° C. Evaluation is carried out 7 days after the inoculation. In this connection, 0% means a degree of effectiveness corresponding to that of the control, while a degree of effectiveness of 100% means that no infestation is observed.
SMILES,pest or weed control at 100 ppm (Alternaria solani),pest or weed control at 500 ppm (Septoria tritici),chromatographic logP [1],pest or weed control at 100 ppm (Uromyces appendiculatus),pest or weed control at 500 ppm (Puccinia triticina),pest or weed control at 500 ppm (Sphaerotheca fuliginea)
"Cc1cc(Oc2nc(C(C)c3ccccc3)ns2)c(C)cc1N=CN1CCCCC1 (stereo not drawn) [Example 8, 2,5-dimethyl-4-{[3-(1-phenylethyl)-1,2,4-thiadiazol-5-yl]oxy}-N-(piperidin-1-ylmethylidene)aniline]",≥ 70%,≥ 70%,1.95,≥ 70%,≥ 70%,≥ 70%
"Cc1cc(Oc2nc(Cc3ccc(Cl)cc3)ns2)c(C)cc1N=CN(C)C(C)C [Example 9, N′-(4-{[3-(4-chlorobenzyl)-1,2,4-thiadiazol-5-yl]oxy}-2,5-dimethylphenyl)-N-methyl-N-(propan-2-yl)imidoformamide]",≥ 70%,≥ 70%,2.03,≥ 70%,≥ 70%,≥ 70%
"CCN(C)C=Nc1cc(C)c(Oc2nc(Cc3cccc(C(F)(F)F)c3)ns2)cc1C [Example 10, N′-[2,5-dimethyl-4-({3-[3-(trifluoromethyl)benzyl]-1,2,4-thiadiazol-5-yl}oxy)phenyl]-N-ethyl-N-methylimidoformamide]",≥ 70%,≥ 70%,2.05,≥ 70%,≥ 70%,≥ 70%
"Cc1cc(Oc2nc(Cc3cccc(C(F)(F)F)c3)ns2)c(C)cc1N=CN1CCCCC1 [Example 13, 2,5-dimethyl-N-(piperidin-1-ylmethylidene)-4-({3-[3-(trifluoromethyl)benzyl]-1,2,4-thiadiazol-5-yl}oxy)aniline]",≥ 70%,≥ 70%,2.28,≥ 70%,≥ 70%,≥ 70%
"CCN(C)C=Nc1cc(C)c(Oc2nc(Cc3c(Cl)cccc3Cl)ns2)cc1C [Example 15, N′-(4-{[3-(2,6-dichlorobenzyl)-1,2,4-thiadiazol-5-yl]oxy}-2,5-dimethylphenyl)-N-ethyl-N-methylimidoformamide]",≥ 70%,≥ 70%,2.05,≥ 70%,≥ 70%,≥ 70%
"Cc1cc(Oc2nc(C(C)c3ccc(Cl)cc3)ns2)c(C)cc1N=CN(C)C(C)C (stereo not drawn) [Example 19, N′-[4-({3-[1-(4-chlorophenyl)ethyl]-1,2,4-thiadiazol-5-yl}oxy)-2,5-dimethylphenyl]-N-methyl-N-(propan-2-yl)imidoformamide]",≥ 70%,≥ 70%,2.46,≥ 70%,≥ 70%,≥ 70%
"CCN(C)C=Nc1cc(C)c(Oc2nc(Cc3ccccc3)ns2)cc1C [Example 23, N′-{4-[(3-benzyl-1,2,4-thiadiazol-5-yl)oxy]-2,5-dimethylphenyl}-N-ethyl-N-methylimidoformamide]",≥ 70%,≥ 70%,1.71,≥ 70%,≥ 70%,≥ 70%
"Cc1cc(Oc2nc(C(C)(C)c3ccc(Cl)cc3)ns2)c(C)cc1N=CN1CCCCC1 [Example 26, 4-({3-[2-(4-chlorophenyl)propan-2-yl]-1,2,4-thiadiazol-5-yl}oxy)-2,5-dimethyl-N-(piperidin-1-ylmethylidene)aniline]",≥ 70%,≥ 70%,2.76,≥ 70%,≥ 70%,≥ 70%
"CCN(C)C=Nc1cc(Cl)c(Oc2nc(C(C)(C)c3ccc(Cl)cc3)ns2)cc1C [Example 28, N′-[5-chloro-4-({3-[2-(4-chlorophenyl)propan-2-yl]-1,2,4-thiadiazol-5-yl}oxy)-2-methylphenyl]-N-ethyl-N-methylimidoformamide]",≥ 70%,≥ 70%,2.73,≥ 70%,≥ 70%,≥ 70%
"Cc1cc(Oc2nc(Cc3ccccc3)ns2)c(C)cc1N=CN1CCCCC1 [Example 36, 4-[(3-benzyl-1,2,4-thiadiazol-5-yl)oxy]-2,5-dimethyl-N-(piperidin-1-ylmethylidene)aniline]",≥ 70%,≥ 70%,1.91,≥ 70%,≥ 70%,≥ 70%
"CCN(C)C=Nc1cc(C)c(Oc2nc(Cc3ccccc3C(F)(F)F)ns2)cc1C [Example 42, N′-[2,5-dimethyl-4-({3-[2-(trifluoromethyl)benzyl]-1,2,4-thiadiazol-5-yl}oxy)phenyl]-N-ethyl-N-methylimidoformamide]",≥ 70%,≥ 70%,2.1,≥ 70%,≥ 70%,≥ 70%
"Cc1cc(Oc2nc(Cc3ccc(Cl)c(Cl)c3)ns2)c(C)cc1N=CN(C)C(C)C [Example 47, N′-(4-{[3-(3,4-dichlorobenzyl)-1,2,4-thiadiazol-5-yl]oxy}-2,5-dimethylphenyl)-N-methyl-N-(propan-2-yl)imidoformamide]",≥ 70%,≥ 70%,2.35,≥ 70%,≥ 70%,≥ 70%
"CCN(C)C=Nc1cc(C)c(Oc2nc(Cc3ccc(Cl)c(Cl)c3)ns2)cc1C [Example 51, N′-(4-{[3-(3,4-dichlorobenzyl)-1,2,4-thiadiazol-5-yl]oxy}-2,5-dimethylphenyl)-N-ethyl-N-methylimidoformamide]",≥ 70%,≥ 70%,2.3,≥ 70%,≥ 70%,≥ 70%
